Where a name gives a salt, the structure may show the parent alone.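 Assay format: 96-well plates, 48-hour exposure. At the GI50, growth is halved.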 The source made the active and inactive calls. Cut-off read from the data, not from the text of the source: active = GI50 up to about 1.1 µM and inactive = higher.
Assays:
Assay in all cases: NCI-60 cell line screen, 48 h
[1] = test system: 786-0
[2] = test system: A498
[3] = test system: CAKI-1
[4] = test system: CCRF-CEM
[5] = test system: HOP-62
[6] = test system: Hs-578T
[7] = test system: K562
[8] = test system: LOX IMVI
[9] = test system: MDA-N
[10] = test system: MOLT-4
[11] = test system: NCI-H226
[12] = test system: OVCAR-3
[13] = test system: OVCAR-4
[14] = test system: SF-539
[15] = test system: SNB-75
[16] = test system: SR
[17] = test system: SW-620
[18] = test system: T47D

Row | SMILES | GI50 [1] | GI50 [2] | GI50 [3] | GI50 [4] | GI50 [5] | GI50 [6] | GI50 [7] | GI50 [8] | GI50 [9] | GI50 [10] | GI50 [11] | GI50 [12] | GI50 [13] | GI50 [14] | GI50 [15] | GI50 [16] | GI50 [17] | GI50 [18]
1 | CN(C)c1nc(-c2ccccc2)c(C(=O)c2c[nH]c3ccccc23)s1 | 8.61 µM (inactive) | 9.98 µM (inactive) | 9.4 µM (inactive) | 5.92 µM (inactive) | 15.1 µM (inactive) | 4.75 µM (inactive) | 4.07 µM (inactive) | 6.49 µM (inactive) | 1.93 µM (inactive) | 6.62 µM (inactive) | > 25.7 µM (inactive) | 5.04 µM (inactive) | 17.4 µM (inactive) | 10.7 µM (inactive) | 2.67 µM (inactive) | 1.54 µM (inactive) | 5.24 µM (inactive) | > 43.7 µM (inactive)
2 | Clc1ccc(OCc2nnc3sc(-c4ccc(-c5ccc(Cl)cc5Cl)o4)nn23)c(Cl)c1 | 13.3 µM (inactive) | 17.4 µM (inactive) | 28.7 µM (inactive) | 25.3 µM (inactive) | 15.4 µM (inactive) | 19.7 µM (inactive) | 24.1 µM (inactive) | 19.3 µM (inactive) | 24.2 µM (inactive) | 18.6 µM (inactive) | 20.4 µM (inactive) | 17.1 µM (inactive) | 35.5 µM (inactive) | 14.8 µM (inactive) | 15 µM (inactive) | 2.58 µM (inactive) | 34.7 µM (inactive) | 19.5 µM (inactive)
3 | CCOC(=O)/C(SC#N)=C(/N)N1CCCC1 | > 100 µM (inactive) | > 60 µM (inactive) | > 100 µM (inactive) | > 100 µM (inactive) | > 100 µM (inactive) | > 100 µM (inactive) | > 100 µM (inactive) | > 100 µM (inactive) | > 100 µM (inactive) | > 100 µM (inactive) | > 100 µM (inactive) | > 100 µM (inactive) | > 100 µM (inactive) | > 100 µM (inactive) | > 94.8 µM (inactive) | > 100 µM (inactive) | > 100 µM (inactive) | > 100 µM (inactive)
4 | COc1ccc2c(c1)Cc1c(NCCN(C)C)ccc(C(=O)NCCCN(C)CCCNC(=O)c3ccc(NCCN(C)C)c4c3Nc3ccc(OC)cc3C4)c1N2 | < 0.01 µM (active) | < 0.0404 µM (active) | 0.753 µM (active) | < 0.0393 µM (active) | < 0.01 µM (active) | < 0.01 µM (active) | < 0.011 µM (active) | < 0.01 µM (active) | < 0.01 µM (active) | < 0.01 µM (active) | < 0.0254 µM (active) | < 0.0187 µM (active) | < 0.0184 µM (active) | 0.209 µM (active) | < 0.01 µM (active) | < 0.01 µM (active) | < 0.0158 µM (active) | 0.15 µM (active)
5 | OC[P+](CO)(CO)C12CC3CC(CC(C3)C1)C2 | – | > 100 µM (inactive) | > 100 µM (inactive) | 4.9 µM (inactive) | > 100 µM (inactive) | > 100 µM (inactive) | 24.5 µM (inactive) | 4.67 µM (inactive) | > 100 µM (inactive) | 26.4 µM (inactive) | > 100 µM (inactive) | > 87.9 µM (inactive) | > 48.3 µM (inactive) | > 100 µM (inactive) | > 64.4 µM (inactive) | 16.7 µM (inactive) | > 100 µM (inactive) | > 100 µM (inactive)
6 | CN1c2ccccc2SC2C(c3ccccc3)=NOC21 (centres undefined) | 35.4 µM (inactive) | 28.4 µM (inactive) | 40.6 µM (inactive) | > 100 µM (inactive) | 33.8 µM (inactive) | 29 µM (inactive) | 22.6 µM (inactive) | – | 22.9 µM (inactive) | 30.4 µM (inactive) | 47.6 µM (inactive) | 56.1 µM (inactive) | 65.8 µM (inactive) | 27.7 µM (inactive) | 16 µM (inactive) | 62.1 µM (inactive) | 25.1 µM (inactive) | 21.5 µM (inactive)
7 | O=S(=O)(O)c1ccc2cc(/N=N\c3cc(S(=O)(=O)O)c4cccnc4c3O)ccc2c1 | > 100 µM (inactive) | > 100 µM (inactive) | > 100 µM (inactive) | 29.7 µM (inactive) | > 100 µM (inactive) | > 100 µM (inactive) | > 100 µM (inactive) | > 100 µM (inactive) | > 100 µM (inactive) | > 100 µM (inactive) | > 100 µM (inactive) | > 100 µM (inactive) | > 100 µM (inactive) | > 100 µM (inactive) | > 100 µM (inactive) | > 100 µM (inactive) | > 100 µM (inactive) | > 100 µM (inactive)
8 | Cc1c(S(=O)(=O)c2ccccc2)c(N)n(CCN(C)C)c1C | > 100 µM (inactive) | > 100 µM (inactive) | > 100 µM (inactive) | > 100 µM (inactive) | – | > 100 µM (inactive) | > 100 µM (inactive) | – | > 100 µM (inactive) | > 100 µM (inactive) | > 100 µM (inactive) | > 100 µM (inactive) | > 100 µM (inactive) | 28.9 µM (inactive) | > 100 µM (inactive) | > 100 µM (inactive) | > 100 µM (inactive) | > 100 µM (inactive)
9 | CCCCOC(=O)CC(CC(=O)OCCCC)(OC(C)=O)C(=O)OCCCC [ACETYLTRIBUTYL CITRATE] | > 200 µM (inactive) | > 200 µM (inactive) | > 200 µM (inactive) | 76.9 µM (inactive) | > 200 µM (inactive) | > 123 µM (inactive) | 29.6 µM (inactive) | 150 µM (inactive) | > 170 µM (inactive) | 17.2 µM (inactive) | 24.6 µM (inactive) | > 200 µM (inactive) | > 81.5 µM (inactive) | > 100 µM (inactive) | 8.49 µM (inactive) | 14.7 µM (inactive) | > 130 µM (inactive) | 48.4 µM (inactive)
10 | O=C1Cc2c([nH]c3cc(Br)ccc23)-c2ccccc2N1 | 36 µM (inactive) | 21.5 µM (inactive) | – | 2.19 µM (inactive) | 11.7 µM (inactive) | 14.8 µM (inactive) | 4.09 µM (inactive) | 2.9 µM (inactive) | 30.1 µM (inactive) | 3.56 µM (inactive) | 6.98 µM (inactive) | 19.6 µM (inactive) | 10.3 µM (inactive) | 16.2 µM (inactive) | 23.8 µM (inactive) | 21.9 µM (inactive) | 6.81 µM (inactive) | 10.9 µM (inactive)
11 | CN(C)c1cccc(/C=C(\C#N)c2ccccc2)c1 | 2.21 µM (inactive) | 2.11 µM (inactive) | 0.771 µM (active) | 0.794 µM (active) | 0.164 µM (active) | 0.723 µM (active) | 0.0927 µM (active) | 0.406 µM (active) | 0.0451 µM (active) | 0.493 µM (active) | 2.55 µM (inactive) | 0.157 µM (active) | 17.1 µM (inactive) | 0.587 µM (active) | 1.39 µM (inactive) | 0.0879 µM (active) | 0.316 µM (active) | 0.525 µM (active)
12 | CCC1(O)CC(O)c2c(O)c3c(c(O)c2C1C(=O)OC)C(=O)c1cccc(O)c1C3=O (centres undefined) | 2.75 µM (inactive) | 3.78 µM (inactive) | 3.43 µM (inactive) | 1.53 µM (inactive) | 3.22 µM (inactive) | 4.7 µM (inactive) | 1.96 µM (inactive) | 2.37 µM (inactive) | 5.36 µM (inactive) | 0.415 µM (active) | 3.4 µM (inactive) | 2.05 µM (inactive) | 2.96 µM (inactive) | 3.85 µM (inactive) | 6.31 µM (inactive) | 1.12 µM (inactive) | 4.67 µM (inactive) | 3.77 µM (inactive)
13 | CC1(C)CC(=O)c2c(nc3c4c([nH]c(-c5ccc([N+](=O)[O-])cc5)c24)CC(C)(C)C3)C1 | 21.3 µM (inactive) | 4.26 µM (inactive) | 44.1 µM (inactive) | 10.1 µM (inactive) | > 100 µM (inactive) | 56.5 µM (inactive) | 20.1 µM (inactive) | 31.3 µM (inactive) | 33 µM (inactive) | 4.14 µM (inactive) | 43.8 µM (inactive) | 85.5 µM (inactive) | 34 µM (inactive) | 65.3 µM (inactive) | 24.8 µM (inactive) | 1.07 µM (active) | 47.4 µM (inactive) | 26.9 µM (inactive)
14 | Cn1c(=O)c2nc3c(=O)n(C)c(=O)n(CC(N)=O)c3nc2n(C)c1=O | > 100 µM (inactive) | > 100 µM (inactive) | > 100 µM (inactive) | > 100 µM (inactive) | > 100 µM (inactive) | > 100 µM (inactive) | > 100 µM (inactive) | > 100 µM (inactive) | > 100 µM (inactive) | – | > 100 µM (inactive) | > 100 µM (inactive) | > 100 µM (inactive) | > 100 µM (inactive) | > 100 µM (inactive) | > 100 µM (inactive) | > 100 µM (inactive) | > 100 µM (inactive)
15 | COc1cc(C(=O)C2CC3(CCC2(O)c2cc(OC)c(OC)c(OC)c2)CC(=O)Nc2ccccc2C3=O)cc(OC)c1OC (centres undefined) | – | > 100 µM (inactive) | > 100 µM (inactive) | 37.3 µM (inactive) | > 100 µM (inactive) | 91 µM (inactive) | 63.8 µM (inactive) | 67.6 µM (inactive) | > 100 µM (inactive) | 33 µM (inactive) | > 100 µM (inactive) | > 100 µM (inactive) | 20.2 µM (inactive) | > 100 µM (inactive) | 24.5 µM (inactive) | 29.6 µM (inactive) | > 100 µM (inactive) | 36.6 µM (inactive)
16 | CN(C)N1C(=O)S/C(=C\c2ccc([N+](=O)[O-])cc2)C1=O | > 100 µM (inactive) | > 100 µM (inactive) | > 100 µM (inactive) | 55.2 µM (inactive) | > 100 µM (inactive) | > 100 µM (inactive) | – | > 100 µM (inactive) | > 100 µM (inactive) | > 100 µM (inactive) | > 100 µM (inactive) | > 100 µM (inactive) | > 100 µM (inactive) | > 100 µM (inactive) | 0.0458 µM (active) | 57.4 µM (inactive) | – | 65.5 µM (inactive)
